Here are results for one molecule from patent publication US20240148819A1, “COMPOUNDS FOR USE IN THE TREATMENT OF SINUSITIS, PNEUMONIA OR OTITIS” (PHARMA HOLDINGS AS, priority 2021, published 2024).

Converted amounts (≈) assume the structure as drawn. “And” between values parts separate entries of the source, which are not always exact repeats. Identical values can stand only once. Like-named read-outs stand apart in the source and are kept apart here.

In data set [1] the test system is Respiratory Syncytial Virus (RSV). As to the kind of experiment: TCID50 assay after 1 h incubation of virus with LTX-109 (Example 2). The following applies: for Percentage: decrease in RSV infectivity, compared to PBS control. The class given is cell-based. As for the experimental part:
To test whether 1% LTX-109 (w/v) and 0.1% LTX-109 (w/v) have antiviral activity against RSV, 1×10^5 infectious units of RSV (40 μl) were incubated with four volumes of 1% LTX-109 or 0.1% LTX-109 dissolved in PBS (160 μl) or a PBS (Phosphate-buffered saline) control. The experiment was performed in triplicates.
After 1 hour, the incubation was stopped by adding an excess of cold media, and the formulation was physically separated from the virus through a filter to reduce cytotoxicity on the assay cells. Some cloudiness in the preparation was observed, particularly for the 1% formulation, but no precipitation. Infectious virus was quantified through a serial dilution (a series of ten-fold dilutions) on monolayers of Hep2 cells in microtitre plates (Hep2 cells are mammalian cells capable of displaying a cytopathic effect (CPE) upon viral infection). The starting solution for the serial dilution (i.e. the neat (or undiluted) solution) was obtained by re-suspending the virus that was separated via the filtration step in 1 ml of media. For each dilution of the virus in the dilution series, eight wells of the microtitre plate were tested (i.e. each dilution of virus was applied to eight separate wells, each well containing a Hep2 cell monolayer). Appropriate controls were also performed. […] The TCID50 (TCID50/ml) assay (Tissue Culture Infectious Dose 50 assay) is a type of endpoint dilution assay that is well known in the art and routinely used to quantitatively measure virus titres. TCID50/ml provides a measure of infectious units of virus/ml. “/ml” refers to/ml of the starting solution (i.e. neat/undiluted solution) mentioned above.

Another data set relates to Moraxella catarrhalis. As to the method: (§1) Bacterial and fungal isolates used in this study were from various sources worldwide stored at GR Micro Ltd. and maintained, with minimal sub-culture, deep frozen at −70° C. as a dense suspension in a high protein matrix of undiluted horse serum.
(§2) Minimum inhibitory concentration (MIC) of LTX-109 was determined using the following microbroth dilution methods for antimicrobial susceptibility testing published by the Clinical and Laboratory Standards Institute (CLSI, formerly NCCLS): • M7-A6 Vol. 23 No. 2 Jan. 2003 Methods for Dilution Antimicrobial Susceptibility Tests for Bacteria that Grow Aerobically; Approved Standard-Sixth Edition. National Committee for Clinical Laboratory Standards. • M100-S15 Vol. 25 No 1. January 2005 Performance Standards for Antimicrobial Susceptibility Testing; Fifteenth Informational Supplement. Clinical and Laboratory Standards Institute • M11-A6 Vol. 24 No. 2 Methods for Antimicrobial Susceptibility Testing of Anaerobic Bacteria; Approved Standard-Sixth Edition. National Committee for Clinical Laboratory Standards. • M27-A2 Vol. 22 No. 15 Reference Method for Broth Dilution Antifungal Susceptibility Testing of Yeasts; Approved Standard-Second Edition. National Committee for Clinical Laboratory Standards. • M38-A Vol. 22 No. 16 Reference Method for Broth Dilution Antifungal Susceptibility Testing of Filamentous Fungi; Approved Standard. National Committee for Clinical Laboratory Standards.
(§3) MIC estimations were performed using wet plates, containing the LTX-109, prepared at GR Micro Ltd.
(§4) Cation-adjusted Mueller-Hinton broth (Oxoid Ltd., Basingstoke, UK and Trek Diagnostic Systems Ltd., East Grinstead, UK) (supplemented with 5% laked horse blood for Streptococcus spp.) was used for aerobic bacteria, with an initial inoculum of approximately 10^5 colony-forming units (CFU)/mL.
(§5) Following normal practice all the plates containing Mueller-Hinton broth were prepared in advance, frozen at −70° C. on the day of preparation and defrosted on the day of use. Fungal, Haemophilus and anaerobic MIC determinations were all performed in plates prepared on the same day.

The subject of a further data set is Streptococcus pneumoniae. As for the experimental part:
as §1, §2, §3, §4, §5

For the next data set, the system named is Streptococcus pyogenes. The following applies: Streptococcus pyogenes - macrolide (MLS) resistant clinical isolate. As to the method: as §1, §2, §3, §4, §5
For another data set, the system named is Pseudomonas aeruginosa. The following applies: Pseudomonas aeruginosa - ATCC 27853 - antibiotic-susceptible type strain; three replicates (frozen and fresh MHB plates). As for the experimental part:
as §1
as §2, with “Standard-Second Edition. […] National Committee” for “Standard-Second Edition. National Committee”, “Laboratory Standards.” for “Laboratory Standards. • M38-A Vol. 22 No. 16 Reference Method for Broth Dilution Antifungal Susceptibility Testing of Filamentous Fungi; Approved Standard. National Committee for Clinical Laboratory Standards.”
MIC estimations were performed using wet plates, containing the LTX-109, prepared at GR Micro Ltd. […]

The next data set concerns Vero cells. The following applies: 1% LTX-109 (w/v), 1 h, after filtration, no virus.
The subject of data set [2] is Rhinovirus 60, 2268-CV37. As to the kind of experiment: TCID50 assay after 1 h incubation of virus with 1% LTX-109 (Example 6). The class given is cell-based.
Data set [3] has as its system Rhinovirus 60, 2268-CV37. As to the kind of experiment: TCID50 assay after 1 h incubation of virus with 3% LTX-109, stopped by dilution (Example 7). The format is cell-based.
The next data set concerns MDCK-II cells. The following applies: 1% LTX-109 (w/v) in PBS, 1 h, after filtration, no virus; dilution up to which cytotoxicity on MDCK-II cells was seen.
The subject of data set [4] is SARS-CoV-2 Isolate England02/2020. The format is cell-based.

Protocol for MDCK-II cells: (§6) A parallel test where the same procedure was carried out in the absence of virus was included to determine any residual cytotoxic effect of the formulation on the assay cells.
Protocol for Vero cells: as §6

Take `CC(C)(C)c1cc(C(C)(C)C)c2[nH]c(C(C)(C)C)c(CC(NC(=O)C(N)CCCNC(=N)N)C(=O)NC(CCCNC(=N)N)C(=O)NCCc3ccccc3)c2c1` (stereo not shown) [LTX-109]: the Percentage in [1] (0.1% LTX-109, 1 h) was 99.9% and 99.97%; in data set [1] (1% LTX-109, 1 h) it was 99.9% and 99.949%; in the data set with Rhinovirus 60, 2268-CV37 [2] (decrease in Rhinovirus infectivity, 1% LTX-109 or 0.25% SDS, 1 hour, compared to PBS control), 98.89%; with Rhinovirus 60, 2268-CV37 [3] (decrease in Rhinovirus infectivity, 3% LTX-109 or 0.25% SDS, 1 hour, compared to PBS control), 98.87%; in data set [4], 99.99% and 99.995%. Besides, the Log came to 1.78 in [1] (log of RSV titre after 1 h with 0.1% LTX-109); 2.20 in data set [1] (log of RSV titre after 1 h with 1% LTX-109); 3.7 with Rhinovirus 60, 2268-CV37 [2] (log of Rhinovirus titre after 1 hour with 1% LTX-109 or 0.25% SDS); 2.3 with Rhinovirus 60, 2268-CV37 [3] (log of Rhinovirus titre after 1 hour with 3% LTX-109 or 0.25% SDS); 2.28 in data set [4]. The MIC against Moraxella catarrhalis (Moraxella catarrhalis - reduced fluoroquinolone susceptibility clinical isolate) amounted to 8 µg/mL (≈ 10.2 µM); in the data set on Moraxella catarrhalis (Moraxella catarrhalis - β-lactamase positive clinical isolate), 4 µg/mL (≈ 5.08 µM); with Streptococcus pneumoniae (Streptococcus pneumoniae - multi-drug resistant clinical isolate), 32 µg/mL (≈ 40.6 µM); against Streptococcus pneumoniae (Streptococcus pneumoniae - penicillin intermediate clinical isolate), 32 µg/mL (≈ 40.6 µM); in the data set on Streptococcus pneumoniae (Streptococcus pneumoniae - penicillin resistant clinical isolate), 16 µg/mL (≈ 20.3 µM); with Streptococcus pneumoniae (Streptococcus pneumoniae - penicillin susceptible clinical isolate), 32 µg/mL (≈ 40.6 µM). For the same molecule, the results for the minimum inhibitory concentration (MIC) in the data set with Streptococcus pyogenes and with Pseudomonas aeruginosa were 16 µg/mL (≈ 20.3 µM) and 8 µg/mL (≈ 10.2 µM), respectively. For the same molecule, the “With Filtration (cytotoxicity)” value with Vero cells and in the data set with MDCK-II cells was “Up to 10^−1” in each case. Further, the Log decrease is 1.9 log in the data set with Rhinovirus 60, 2268-CV37 [2] (Rhinovirus, 1% LTX-109 or 0.25% SDS, 1 hour, compared to PBS control) and 1.9 log with Rhinovirus 60, 2268-CV37 [3] (Rhinovirus, 3% LTX-109 or 0.25% SDS, 1 hour, compared to PBS control).

What is called MIC is the least concentration at which growth counts as inhibited.
